Assay results as given in US8222487B2, “Application of ERF genes from Bupleurum kaoi” (National Tsing Hua University, priority 2009, dated 2012).

Test system: B. kaoi adventitious roots
Assay: qRT-PCR of MeJA-induced gene transcripts in adventitious roots
Format: cell-based, Bupleurum kaoi
Conditions: 500 μM MeJA
Experimental: Adventitious root cultures were induced from the roots of germ-free seedlings of B. kaoi and were subcultured every 6 weeks by adding 0.2 g roots to a 125 ml flask containing 50 ml of B5 liquid medium supplemented with 2 mg 1^−1 NAA. Cultures were shaken using a rotary shaker at 100 rpm at 25° C. in the dark. To quantify the effect of MeJA on saikosaponin level, adventitious roots were treated with 500 and 1000 μM MeJA 2 weeks after subculture. Total saikosaponin was measured 2 weeks after MeJA treatment. To monitor expression of MeJA-responsive genes, the nutrient medium was refreshed 4 weeks after subculture and MeJA (500 μM) was applied 2 weeks after refreshment. Roots were harvested at 13 time points (5 min; 1, 2, 8, 24 hours; 2, 4, 6, 8 days; 2, 3, 4, 5 weeks) after the addition of the MeJA.
Total cellular RNA was extracted as described by Chang et al. (Chang et al., Plant Mol. Biol. (1993) 693-699) with some modifications. Three to five grams of tissue was frozen in liquid nitrogen and ground to a fine powder with mortar and pestle. The powder was added to 15 ml of prewarmed (65° C.) extraction buffer (2%, v/v hexadecyltrimethylammonium bromide (CTAB), 2%, v/v polyvinylpyrrolidinone K 30 (PVP), 100 mM Tris-HCl, pH 8.0, 25 mM EDTA, 2 M NaCl, 0.5 mg ml^−1 spermidine, 2% β-mercaptoethanol), and mixed completely by vigorous shaking. The mixture was extracted twice with an equal volume of chloroform:isoamyl alcohol (24:1). The RNA was precipitated by adding ¼ volume of cold 10 M LiCl to the aqueous phase and held for 12 to 18 h at −20° C. After centrifugation at 19,800×g at 4° C., the RNA was dissolved in 500 μl sterile DEPC H2O. The resuspended RNA was reextracted with chloroform:isoamyl alcohol (24:1). Three volumes of 100% ethanol and 1/10 volume of 3 M sodium acetate (pH 5.2) were added to the aqueous phase, and the solution was precipitated with liquid nitrogen for 15 min The RNA was spun down at 19,800×g for 30 min at 4° C. and washed with 80% ethanol. The dried pellet was resuspended in sterile DEPC H2O.
Each RNA sample of 10 μg in 9 μl sterile DEPC H2O and 1 μl oligo-d(T)18 primer (100 μM) was denatured at 90° C. for 5 min and chilled on ice for 10 min Then 4μ5× reaction buffer (250 mM Tris-HCl, pH 8.0, 375 mM KCl, 15 mM MgCl2), 2 μl 10 mM dNTP, 2 μl 100 mM dithiothreitol (DTT), and 0.5 μl RNasin ribonuclease inhibitor (40 U μl^−1, Promega) were added and incubated at 37° C. for 10 min. After the addition of 1.5 μl Moloney murine leukemia virus (MMLV) reverse transcriptase (200 U μl^−1, Gibco BRL), the reaction was carried out at 37° C. for 90 min, 95° C. for 5 min, then chilled on ice. qRT-PCR reactions were performed with a SYBR Green PCR Master Mix (Applied Biosystems) in a 7500 Real-Time PCR System (Applied Biosystems) using primers designed with Primer Express 2.0 Software (Applied Biosystems). Each reaction was performed in triplicate, and contained 4 μl of a 1:1000 dilution of synthesized cDNA, primers to a final concentration of 100 nM each, 5 μl of the SYBR Green PCR Master mix and sterile deionized H2O to a total volume of 10 μl. PCR reactions were carried out at 50° C. for 2 min, 95° C. for 10 min, 40 cycles of 95° C. for 15 s and 60° C. for 1 min. The specificity of the amplified products was evaluated by analysis of the dissociation curves generated by the equipment. Non-template controls were prepared to confirm absence of contamination. The ratio between the relative amounts of the target gene and the endogenous control gene, in the qRT-PCR reactions, was determined based on the 2^−ΔΔCt method. The target gene expression level was plotted as log10 RQ (RQ=2^−ΔΔCt).

In the case of `CC/C=C\CC1C(=O)CCC1CC(=O)OC` (stereo not shown) [MeJA, Methyl jasmonate], the “Peroxidase AM409285 transcripts increase” value (2 weeks) was 37 fold, the “BkGST1 (AM409308) transcripts increase” value (5 min) was 3 fold and the “BkGST2 (AM409289) transcripts activation” value (5 min) was 6 fold. For the same compound, the “B. kaoi PAL (AM409299) transcripts increase” value (1 h) was 3 fold, the “BkERF1.2 (AM409280) transcripts increase” value (1 h) was 133 fold and the “Peroxidase AM409296 transcripts increase” value (1 h) was 7 fold. For the same compound, the “Phospholipase D alpha 1 (AM409303) transcripts induction” value (1 h) was 6 fold, the “Trypsin protease inhibitor AM409305 transcripts increase” value (1 h) was 4 fold and the “ACO gene (AM409282) induction” value (2 h) was 5 fold. The “BkAOC (AM409312) mRNA level induction” value (2 h) was 9 fold, the “BkERF1.1 (AM409278) transcripts increase” value (2 h) was 41 fold and the “IAA-amino acid hydrolase (AM409294) transcripts increase” value (2 h) was 50 fold. The “PIN (AM409287) transcripts increase” value (2 h) was 166 fold, the “Prephenate dehydratase (AM409309) transcripts induction” value (2 h) was 7 fold and the “Trypsin protease inhibitor AM409295 transcripts increase” value (2 h) was 5 fold. The “BkGST2 (AM409289) transcripts increase” value (8 h) was 161 fold, the “Peroxidase AM409285 transcripts increase” value (8 h) was 5 fold and the “Protease inhibitor (AM409279) transcripts increase” value (8 h) was 4 fold. For the same compound, the “Pyruvate kinase gene (AM409311) induction” value (8 h) was 3 fold, the “UDP-glucosyltransferase gene (AM409293) induction” value (8 h) was 98 fold and the “Serine protease inhibitor (AM409301) mRNA level increase” value (24 h) was 3 fold. The “Trypsin protease inhibitor AM409295 transcripts increase” value (2 days) was 2051 fold, the “IAA-amido synthase gene (AM409281) induction” value (4 days) was 5 fold and the “IAA-amino acid hydrolase (AM409294) transcripts increase” value (4 days) was 139 fold. For the same compound, the “Pyruvate kinase gene (AM409311) induction” value (4 days) was 9 fold, the “B. kaoi PAL (AM409299) transcripts increase” value (6 days) was 23 fold and the “Basic endochitinase gene (AM409300) induction” value (6 days) was 726 fold. For the same compound, the “BkSDR (AM409290) transcripts increase” value (6 days) was 4 fold, the “Glycosyl hydrolase family 18 protein gene (AM409313) induction” value (6 days) was 61 fold and the “LOX (AM409291) transcript induction” value (6 days) was 4404 fold. For the same compound, the “PIN (AM409287) transcripts increase” value (6 days) was 178 fold, the “Peroxidase AM409296 transcripts increase” value (6 days) was 114 fold and the “Phospholipase D alpha 1 (AM409303) transcripts induction” value (6 days) was 44 fold. The “Prephenate dehydratase (AM409309) transcripts induction” value (6 days) was 27 fold, the “Trypsin protease inhibitor AM409305 transcripts increase” value (6 days) was 2944 fold and the “Zinc finger C2H2 type gene (AM409288) transcripts induction” value (6 days) was 118 fold. For the same compound, the “ACO gene (AM409282) induction” value (8 days) was 19 fold, the “BkGST1 (AM409308) transcripts increase” value (8 days) was 17 fold and the “IAA-amido synthase gene (AM409281) induction” value (8 days) was 10 fold. The “MYB gene (AM409302) transcripts increase” value (8 days) was 53 fold, the “OPR2 (AM409310) expression level induction” value (8 days) was 19 fold and the “Protease inhibitor (AM409279) transcripts increase” value (8 days) was 90 fold. The “Serine protease inhibitor (AM409301) mRNA level increase” value (8 days) was 81 fold, the “Plant defensin (AM409284) transcripts increase” value (after 2 weeks) was 5 fold and the “Enoyl-CoA hydratase gene (AM409286) induction” value (primarily in 4-8 days) was 6 fold. The “β-amyrin synthase gene (β-AS, AM421813) transcript level increase” value (time not stated) was 2 fold.
